Read-outs that look alike come from different tables or passages of the source.
Legend:
[1] = tested on: Capan-1 pancreatic adenocarcinoma cells; test: Antiproliferative screening, MTS cell viability assay; assay type: cell-based; details: Homo sapiens
[2] = tested on: HEL 299 normal human lung fibroblasts; test: Antiproliferative screening on noncancerous cells; details: for IC50: Homo sapiens, HEL 299, read-out: IC50 HEL 299
[3] = tested on: HCT-116 colorectal carcinoma cells; test: Antiproliferative screening, MTS cell viability assay; assay type: cell-based; details: Homo sapiens
[4] = tested on: HL-60 acute myeloid leukemia cells; test: Antiproliferative screening, IncuCyte cell growth; assay type: cell-based; details: Homo sapiens
[5] = tested on: LN-229 glioblastoma cells; test: Antiproliferative screening, MTS cell viability assay; assay type: cell-based; details: Homo sapiens
[6] = tested on: K-562 chronic myeloid leukemia cells; test: Antiproliferative screening, IncuCyte cell growth; assay type: cell-based; details: Homo sapiens
[7] = tested on: DND-41 acute lymphoblastic leukemia cells; test: Antiproliferative screening, IncuCyte cell growth; assay type: cell-based; details: Homo sapiens
[8] = tested on: Z-138 non-Hodgkin lymphoma cells; test: Antiproliferative screening, IncuCyte cell growth; assay type: cell-based; details: Homo sapiens
[9] = tested on: NCI-H460 lung carcinoma cells; test: Antiproliferative screening, MTS cell viability assay; assay type: cell-based; details: Homo sapiens
in vitro = details: human
[10] = CAPAN-1, 72 h, read-out: IC50 Capan-1
[11] = HCT-116, 72 h, read-out: IC50 HCT-116
[12] = HL-60, 72 h, read-out: IC50 HL-60
[13] = LN-229, 72 h, read-out: IC50 LN-229
[14] = K562, 72 h, read-out: IC50 K-562
[15] = DND41, 72 h, read-out: IC50 DND-41
[16] = Z-138, 72 h, read-out: IC50 Z-138
[17] = NCI-H460, 72 h, read-out: IC50 NCI-H460

Row | SMILES | IC50 [1, 10] [µM] | IC50 [3, 11] [µM] | IC50 [4, 12] [µM] | IC50 [5, 13] [µM] | IC50 [6, 14] [µM] | IC50 [7, 15] [µM] | IC50 [8, 16] [µM] | IC50 [9, 17] [µM] | IC50 ([1]; CAPAN-1, read-out: IC50 Capan-1) [µM] | IC50 ([3]; HCT-116, read-out: IC50 HCT-116) [µM] | IC50 ([4]; HL-60, read-out: IC50 HL-60) [µM] | IC50 ([5]; LN-229, read-out: IC50 LN-229) [µM] | IC50 ([6]; K562, read-out: IC50 K-562) [µM] | IC50 ([7]; DND41, read-out: IC50 DND-41) [µM] | IC50 ([8]; Z-138, read-out: IC50 Z-138) [µM] | IC50 ([9]; NCI-H460, read-out: IC50 NCI-H460) [µM] | IC50 [2] [µM] | CC50 (in vitro) [µM] | Cytotoxicity against noncancerous cells in words ([2]; HEL 299)
1 | Cc1nc(CNC(=O)c2ccc(Cl)cc2N)cc2c1[nH]c1ccccc12 [Compound 18, 2-Amino-4-chloro-N-[(1-methyl-9H-pyrido[3,4-b]indol-3-yl)methyl]benzamide] | 56.3 ± 24.1 | 55 ± 17.7 | > 100 | 44 ± 7.6 | > 100 | > 100 | > 100 | 43.8 ± 8.4 | – | – | – | – | – | – | – | – | > 100 | – | –
2 | COc1cc(NC(C)CCCNC(=O)c2ccc(Cl)cc2NC(=O)OC(C)(C)C)c2ncccc2c1 (stereo not shown) [Compound 5, tert-Butyl {5-chloro-2-[[4-[(6-methoxyquinolin-8-yl)amino]pentyl]carbamoyl]phenyl}carbamate] | > 100 | > 100 | > 100 | > 100 | > 100 | > 100 | > 100 | > 100 | – | – | – | – | – | – | – | – | > 100 | – | –
3 | CC(=O)O[C@@]12CO[C@@H]1C[C@H](O)[C@@]1(C)C(=O)[C@H](O)C3=C(C)[C@@H](OC(=O)[C@H](O)[C@@H](NC(=O)OC(C)(C)C)c4ccccc4)C[C@@](O)([C@@H](OC(=O)c4ccccc4)[C@H]21)C3(C)C [DTX, docetaxel, reference compound] | – | – | – | – | – | – | – | – | 0.01 ± 0.003 | 0.0025 ± 0.003 | 0.0137 ± 0.003 | 0.0018 ± 0.003 | 0.0089 ± 0.003 | 0.0055 ± 0.003 | 0.0025 ± 0.003 | 0.0271 ± 0.003 | – | – | –
4 | Cc1nc(CNC(=O)c2ccccc2N)cc2c1[nH]c1ccccc12 [Compound 17, 2-Amino-N-[(1-methyl-9H-pyrido[3,4-b]indol-3-yl)methyl]benzamide] | 31.4 ± 1.9 | 48.4 ± 3.8 | 44 ± 8.4 | 41 ± 0.3 | 52 ± 5.3 | 61.5 ± 2.1 | 35.1 ± 4.5 | 54.8 ± 5.9 | – | – | – | – | – | – | – | – | 32.8 ± 3.3 | – | –
5 | COc1cc(NC(C)CCCNC(=O)c2cc(Br)ccc2NC(=O)OC(C)(C)C)c2ncccc2c1 (stereo not shown) [Compound 6, tert-Butyl {4-bromo-2-[[4-[(6-methoxyquinolin-8-yl)amino]pentyl]carbamoyl]phenyl}carbamate] | > 100 | > 100 | > 100 | > 100 | > 100 | > 100 | > 100 | > 100 | – | – | – | – | – | – | – | – | > 100 | – | –
6 | N#C[C@@]1(c2ccc3c(N)ncnn23)O[C@H](CO)[C@@H](O)[C@H]1O [GS-441524] | – | – | – | – | – | – | – | – | – | – | – | – | – | – | – | – | – | > 100 | –
7 | O=C(NCCCCNc1ccnc2cc(Cl)ccc12)c1ccccc1NCc1ccccc1 [Compound 1, 2-(Benzylamino)-N-{4-[(7-chloroquinolin-4-yl)amino]butyl}benzamide] | 57.6 ± 14.6 | > 100 | > 100 | 53.5 ± 12.2 | 55.7 ± 10 | > 100 | > 100 | > 100 | – | – | – | – | – | – | – | – | 8 ± 4.4 | – | –

Now from value to compound, other results behind:

Row | IC50 [1, 10] [µM] | IC50 [3, 11] [µM] | IC50 [4, 12] [µM] | IC50 [5, 13] [µM] | IC50 [6, 14] [µM] | IC50 [7, 15] [µM] | IC50 [8, 16] [µM] | IC50 [9, 17] [µM] | IC50 ([1]; CAPAN-1, read-out: IC50 Capan-1) [µM] | IC50 ([3]; HCT-116, read-out: IC50 HCT-116) [µM] | IC50 ([4]; HL-60, read-out: IC50 HL-60) [µM] | IC50 ([5]; LN-229, read-out: IC50 LN-229) [µM] | IC50 ([6]; K562, read-out: IC50 K-562) [µM] | IC50 ([7]; DND41, read-out: IC50 DND-41) [µM] | IC50 ([8]; Z-138, read-out: IC50 Z-138) [µM] | IC50 ([9]; NCI-H460, read-out: IC50 NCI-H460) [µM] | SMILES | IC50 [2] [µM] | CC50 (in vitro) [µM] | Cytotoxicity against noncancerous cells in words ([2]; HEL 299)
8 | 6.5 ± 2.9 | 28.9 ± 24.1 | 6.7 ± 0.2 | 20.8 ± 13.8 | 29.1 ± 21.3 | 32.1 ± 20.8 | 8.2 ± 1.9 | 8.3 ± 4.3 | – | – | – | – | – | – | – | – | Cc1nc(CNC(=O)c2ccc(Cl)cc2NC(=O)OC(C)(C)C)cc2c1[nH]c1ccccc12 [Compound 8, tert-Butyl {5-chloro-2-[[(1-methyl-9H-pyrido[3,4-b]indol-3-yl)methyl]carbamoyl]phenyl}carbamate] | 7.1 ± 1.8 | – | –
9 | 5.8 ± 3 | 32.9 ± 7.9 | 10.8 ± 3.3 | 8.3 ± 3.1 | 63.1 ± 36.9 | 12.5 ± 6.9 | 4.1 ± 1.8 | 3.2 ± 1.8 | – | – | – | – | – | – | – | – | Cc1nc(CNC(=O)c2cc(Br)ccc2NC(=O)OC(C)(C)C)cc2c1[nH]c1ccccc12 [Compound 9, tert-Butyl {4-bromo-2-[[(1-methyl-9H-pyrido[3,4-b]indol-3-yl)methyl]carbamoyl]phenyl}carbamate] | 7.5 ± 1 | – | –
10 | 20.4 ± 9 | 32.4 ± 20 | 41.5 ± 17 | 30.1 ± 2.1 | 54.5 ± 18.5 | 46.2 ± 1.9 | 28.6 ± 14.6 | 21.2 ± 10 | – | – | – | – | – | – | – | – | CC(C)(C)OC(=O)Nc1cc(Cl)ccc1C(=O)NCCCCNc1ccnc2cc(Cl)ccc12 [Compound 2, tert-Butyl {5-chloro-2-[[4-[(7-chloroquinolin-4-yl)amino]butyl]carbamoyl]phenyl}carbamate] | > 100 | – | no cytotoxicity against noncancerous cells
